Where “and” joins values, the source holds several entries; their conditions need not be identical. Equal entries are not always repeated.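 Protocol summary: plate cells (96-well), add compound at 5 concentrations, incubate 48 h, interpolate endpoints linearly. At the GI50, growth is halved. Definition used: TGI = concentration required for complete inhibition of growth.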 Some results are limits rather than exact numbers.

Holding throughout (assay): DTP human tumour cell line panel, 48 h
The test system of assay [1] is SW-620 colon.
The subject of assay [2] is MOLT-4 leukemia.
The subject of assay [3] is EKVX NSCLC.
Assay [4] has as its system KM12 colon.
Assay [5] concerns BT-549 breast.
The subject of assay [6] is COLO 205 colon.
For assay [7], the system named is HOP-92 NSCLC.
For assay [8], the system named is UACC-62 melanoma.
Assay [9] has as its system HCT-15 colon.
Assay [10] relates to MALME-3M melanoma.

As to `CC(=O)OC1CC(O)C23COC(O)C1(C)C2CC(O)C1(C)C3C(=O)C(O)C2(C)C(c3ccoc3)CC3OC321` (stereo unspecified), the GI50 in [1] is 0.0323 µM; in [2] it was under 0.01 µM; in assay [3], 1.94 µM; in [4], under 0.01 µM; in [5], 0.071 µM; in [6], under 0.01 µM. Besides, the GI50 in assay [7] was 0.911 µM; in assay [8] it was under 0.01 µM; in [9], 1.26 µM. Moreover, the total growth inhibition concentration (TGI) was over 100 µM in assay [1]; 0.0127 µM in assay [2]; over 100 µM in [3]; over 100 µM in assay [4]; over 100 µM in [5]; over 100 µM in assay [6]. In addition, the values for the TGI in [7], in [8] and in assay [9] were over 100 µM, under 0.0129 µM and over 100 µM, respectively.
As to `COc1cc(C2=NN(C(C)=O)C(c3ccc(OC(C)=O)cc3OC(C)=O)O2)c(OC(C)=O)c2ccccc12` (stereo unspecified), the GI50 in [1] was 0.608 µM; in assay [10] it was 1.83 µM; in assay [2] it was 0.44 µM; in assay [4], 1.02 µM; in [5], 1.87 µM; in assay [6] it was 2.58 µM. Also, the GI50 in assay [7] was 2.07 µM; in [8], 0.897 µM; in assay [9], 0.581 µM. Moreover, the TGI in [1] was determined as 27.5 µM; in assay [10] it was 20.5 µM; in [2], 8.5 µM; in assay [4], 27.3 µM; in [5] it was 47.6 µM; in assay [6], 10.1 µM. Besides, the results for the total growth inhibition concentration (TGI) in [7], in assay [8] and in assay [9] were 30.7 µM, 9.67 µM and 25.6 µM, respectively.
For the compound `CCOC(=O)c1cc(/C(=N\O)c2cc(OC)c(OC)c(OC)c2)n2cc(C)cc(C)c12`, the GI50 is 2.56 µM in [1]; 1.44 µM in assay [10]; 3.83 µM in assay [3]; 2.31 µM in assay [4]; 4.39 µM in [5]; 2.26 µM in assay [7]. For the same compound, the GI50 in assay [9] was 2.82 µM. Further, the TGI in assay [1] was over 100 µM; in assay [10] it was 3.98 µM; in assay [3], over 100 µM; in [4], over 100 µM; in [5], over 100 µM; in assay [7] it was 7.08 µM. Moreover, the TGI in assay [9] was over 100 µM.
Regarding `O=C1NC(=O)c2ccc([N+](=O)[O-])c3cccc1c23`, the total growth inhibition concentration (TGI) in assay [1] was determined as 25.7 µM; in assay [3], 62.4 µM; in assay [5], 33.7 µM; in assay [6], 30.9 µM; in [7], 37.2 µM; in assay [8] it was 27 µM. The same compound had a TGI in assay [9] of 22.4 µM.
Take `COc1cc(NC(=O)c2cc(O)c(CC=C(C)C)c(O)c2)cc2c1O[C@]1(C)CC[C@@H](O)C(C)(C)[C@H]1C2`: the GI50 in [1] was 3.09 µM; in [10], 6.24 µM; in [2], 2.07 µM; in assay [3], 5.96 µM; in assay [4], 4.12 µM; in assay [5], 0.819 µM. Moreover, the GI50 in assay [6] was 2.24 µM; in assay [8], 2.41 µM; in assay [9] it was 4.09 µM. Also, the TGI in [1] was determined as 13.8 µM; in [10], 24.3 µM; in assay [2], 7.87 µM; in assay [3] it was 48.2 µM; in assay [4], 18.4 µM; in [5], 13.5 µM. The concentration for total growth inhibition (TGI) in assay [6] is 5.5 µM; in assay [8], 8.27 µM; in assay [9], 21.3 µM.
In the case of `CN(C)CCNC(=O)c1cccc(C(=O)Nc2ccccc2)c1[N+](=O)[O-]`, the concentration for total growth inhibition (TGI) in assay [1], in [10], in assay [2], in assay [4], in [5] and in assay [6] was over 100 µM in each case. The concentration for total growth inhibition (TGI) in [8] and in [9] was over 100 µM in each case.
As to `COc1cc[nH]c1/C=C1\C(=O)Nc2ccccc21`, the GI50 in assay [1] is 7.24 µM; in [10], 9.88 µM; in assay [2], 11 µM; in [4], 0.948 µM; in [5], 7.98 µM; in assay [6], 14.1 µM. For the same compound, the GI50 was 4.34 µM in assay [7], 8.58 µM in assay [8] and 4.85 µM in assay [9]. Also, the concentration for total growth inhibition (TGI) in assay [1], in assay [10], in [2], in assay [4], in [5] and in [6] was over 25 µM throughout. The results for the total growth inhibition concentration (TGI) in assay [7], in [8] and in assay [9] were over 21 µM, over 25 µM and over 25 µM, respectively.
For the compound `COC(=O)C1=NC(=S)NC(c2ccccc2)C1c1nc2ccccc2s1` (stereo unspecified), the TGI in assay [1], in assay [10], in assay [2], in assay [3], in assay [4] and in assay [6] was over 100 µM in each case. In addition, the total growth inhibition concentration (TGI) in assay [7], in assay [8] and in [9] was over 100 µM each time.
For `COc1ccc2c(c1)CCC1C3(CCCC21C)OCCO3` (stereo unspecified), the TGI was 96.2 µM in assay [1]; 58.8 µM in assay [10]; 53.5 µM in assay [2]; 82.3 µM in [3]; 51.7 µM in [4]; 35.4 µM in assay [6]. The TGI in assay [7] came out at 35.3 µM; in assay [8], 38 µM; in assay [9] it was 34.2 µM.
`Cc1ccc(Nc2nc3c(s2)C(=O)c2ccccc2C3=O)c(C)c1`: the concentration for total growth inhibition (TGI) stood at 43.5 µM in assay [1]; 26.9 µM in assay [10]; 23.4 µM in assay [2]; 33 µM in assay [3]; 33 µM in assay [4]; 35.2 µM in [6]. The concentration for total growth inhibition (TGI) was 22.9 µM in assay [7], 29.5 µM in assay [8] and 41.5 µM in [9].
For `CC(=O)OC[C@]12CC[C@H]3[C@@H](C[C@H]4O[C@]45[C@@H](O)C=CC(=O)[C@]35C)[C@@H]1CC[C@@H]2[C@H](C)[C@H]1CC(C)=C(C)C(=O)O1`, the GI50 in assay [1] is 0.274 µM and 0.141 µM; in assay [10], 1.11 µM; in [2], 0.289 µM and 0.191 µM; in assay [3] it was 0.601 µM and 0.753 µM; in assay [4] it was 0.467 µM and 0.349 µM; in assay [6] it was 0.348 µM and 0.31 µM. Moreover, the GI50 in assay [7] was 0.22 µM and 0.189 µM; in assay [8], 0.481 µM and 0.479 µM; in assay [9] it was 0.294 µM and 0.177 µM. For the same compound, the TGI was 0.744 µM and 0.463 µM in [1]; 2.4 µM in assay [10]; 0.878 µM and 0.615 µM in assay [2]; 1.94 µM in [3]; 1.11 µM in [4]; 0.91 µM in [6]. Besides, the TGI in assay [7] was 0.722 µM and 1.27 µM; in assay [8] it was 1.58 µM; in assay [9], 0.751 µM and 0.371 µM.

Broadly, the GI50 is the concentration giving 50% growth inhibition. A word on the TGI: it is the concentration giving total growth inhibition. Higher therefore signals lower sensitivity of the cells.
